Results from article PMC6972920, “Structure-based development of caged dopamine D2/D3 receptor antagonists” (Scientific Reports, 2020).

Legend:
[1] = molecular target: T1, human dopamine receptor subtype D4.4 (Homo sapiens, UniProt P21917); assay: Radioligand displacement, [3H]spiperone, CHO cell membranes; format: binding; conditions: [3H]spiperone; mean ± SEM of 4-9 experiments; compounds 1, 2, 3: ± SD of two experiments; read-out: Ki value D4.4
T1 sequence (P21917 1-419): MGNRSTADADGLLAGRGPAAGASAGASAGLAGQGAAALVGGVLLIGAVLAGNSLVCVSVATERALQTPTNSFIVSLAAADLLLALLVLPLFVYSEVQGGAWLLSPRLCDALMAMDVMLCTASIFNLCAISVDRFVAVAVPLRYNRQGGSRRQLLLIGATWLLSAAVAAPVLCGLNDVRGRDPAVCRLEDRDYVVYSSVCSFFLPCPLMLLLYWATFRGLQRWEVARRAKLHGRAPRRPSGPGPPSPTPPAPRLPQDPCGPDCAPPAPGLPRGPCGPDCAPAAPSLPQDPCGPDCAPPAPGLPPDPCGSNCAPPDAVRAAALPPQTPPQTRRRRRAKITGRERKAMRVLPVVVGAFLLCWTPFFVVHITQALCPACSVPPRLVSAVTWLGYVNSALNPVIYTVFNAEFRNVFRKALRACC

[2] = molecular target: T2, human dopamine D1 receptor (Homo sapiens, UniProt P21728); assay: Competition binding, [3H]SCH23390, HEK293T membranes; conditions: read-out: Ki value D1
T2 construct: expressed in transfected cells; host or cells: HEK293T cells, transient transfection

[3] = molecular target: T3, human dopamine D5 receptor (Homo sapiens, UniProt P21918); assay: as above
T3 construct: expressed in transfected cells; host or cells: HEK293T cells, transient transfection

[4] = molecular target: T4, human serotonin 5-HT1A receptor (Homo sapiens, UniProt P08908); assay: Competition binding, [3H]WAY600135, HEK293T membranes; conditions: ± SD of two experiments
T4 construct: expressed in transfected cells; host or cells: HEK293T cells, transient transfection
T4 sequence (P08908 1-422): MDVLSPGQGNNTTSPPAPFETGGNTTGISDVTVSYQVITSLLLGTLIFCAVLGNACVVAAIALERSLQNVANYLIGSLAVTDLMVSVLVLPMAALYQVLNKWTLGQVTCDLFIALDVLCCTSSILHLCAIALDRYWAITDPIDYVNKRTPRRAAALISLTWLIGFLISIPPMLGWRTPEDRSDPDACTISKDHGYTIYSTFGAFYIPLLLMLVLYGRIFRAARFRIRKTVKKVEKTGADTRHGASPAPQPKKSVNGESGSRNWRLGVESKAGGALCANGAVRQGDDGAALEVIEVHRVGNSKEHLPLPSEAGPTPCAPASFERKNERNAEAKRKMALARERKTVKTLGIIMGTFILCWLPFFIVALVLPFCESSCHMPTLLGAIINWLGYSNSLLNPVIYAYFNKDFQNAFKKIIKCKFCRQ

[5] = molecular target: T5, human serotonin 5-HT2A receptor (Homo sapiens, UniProt P28223); assay: Competition binding, [3H]ketanserin, HEK293T membranes; conditions: ± SD of two experiments
T5 construct: expressed in transfected cells; host or cells: HEK293T cells, transient transfection

[6] = molecular target: T6, human adrenergic α1A receptor (Homo sapiens, UniProt P35348); assay: Competition binding, [3H]prazosin, HEK293T membranes; conditions: ± SD of two experiments
T6 construct: expressed in transfected cells; host or cells: HEK293T cells, transient transfection
T6 sequence (P35348 1-466): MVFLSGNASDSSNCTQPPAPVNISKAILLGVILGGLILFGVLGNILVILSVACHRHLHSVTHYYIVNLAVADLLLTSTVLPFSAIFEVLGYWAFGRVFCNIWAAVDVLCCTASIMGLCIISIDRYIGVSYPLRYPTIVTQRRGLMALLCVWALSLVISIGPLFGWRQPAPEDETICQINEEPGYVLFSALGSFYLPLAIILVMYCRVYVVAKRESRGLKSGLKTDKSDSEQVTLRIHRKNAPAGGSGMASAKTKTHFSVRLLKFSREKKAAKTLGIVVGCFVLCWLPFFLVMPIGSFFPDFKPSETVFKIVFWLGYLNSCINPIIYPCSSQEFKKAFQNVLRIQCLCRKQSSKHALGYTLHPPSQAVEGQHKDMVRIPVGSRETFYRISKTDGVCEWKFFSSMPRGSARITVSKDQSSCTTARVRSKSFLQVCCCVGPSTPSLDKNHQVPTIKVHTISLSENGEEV

[7] = molecular target: T7, human adrenergic α2A receptor (Homo sapiens, UniProt P08913); assay: Competition binding, [3H]RX821002, HEK293T membranes; conditions: [3H]RX821002; ± SD of two experiments
T7 construct: expressed in transfected cells; host or cells: HEK293T cells, transient transfection
T7 sequence (P08913 1-465): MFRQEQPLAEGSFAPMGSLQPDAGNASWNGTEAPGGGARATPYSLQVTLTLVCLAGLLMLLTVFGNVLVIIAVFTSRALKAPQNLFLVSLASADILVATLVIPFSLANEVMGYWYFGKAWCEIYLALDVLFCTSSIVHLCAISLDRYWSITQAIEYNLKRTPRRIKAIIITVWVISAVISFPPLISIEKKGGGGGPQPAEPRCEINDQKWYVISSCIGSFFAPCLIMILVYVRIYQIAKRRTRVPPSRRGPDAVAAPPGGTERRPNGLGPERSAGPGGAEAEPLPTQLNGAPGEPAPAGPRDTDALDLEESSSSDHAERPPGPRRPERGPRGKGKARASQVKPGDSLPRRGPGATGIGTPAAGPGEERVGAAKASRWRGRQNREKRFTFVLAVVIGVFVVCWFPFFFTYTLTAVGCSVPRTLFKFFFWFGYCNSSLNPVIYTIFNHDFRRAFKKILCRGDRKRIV

[8] = molecular target: T8, human adrenergic β2 receptor (Homo sapiens, UniProt P07550); assay: Competition binding, [3H]CGP12177, HEK293T membranes; conditions: ± SD of two experiments
T8 construct: expressed in transfected cells; host or cells: HEK293T cells, transient transfection

D2 and D3 receptors = assay: Radioligand binding, summary over D2 and D3 subtypes; design: species or system human

T5 sequence (P28223 whole entry): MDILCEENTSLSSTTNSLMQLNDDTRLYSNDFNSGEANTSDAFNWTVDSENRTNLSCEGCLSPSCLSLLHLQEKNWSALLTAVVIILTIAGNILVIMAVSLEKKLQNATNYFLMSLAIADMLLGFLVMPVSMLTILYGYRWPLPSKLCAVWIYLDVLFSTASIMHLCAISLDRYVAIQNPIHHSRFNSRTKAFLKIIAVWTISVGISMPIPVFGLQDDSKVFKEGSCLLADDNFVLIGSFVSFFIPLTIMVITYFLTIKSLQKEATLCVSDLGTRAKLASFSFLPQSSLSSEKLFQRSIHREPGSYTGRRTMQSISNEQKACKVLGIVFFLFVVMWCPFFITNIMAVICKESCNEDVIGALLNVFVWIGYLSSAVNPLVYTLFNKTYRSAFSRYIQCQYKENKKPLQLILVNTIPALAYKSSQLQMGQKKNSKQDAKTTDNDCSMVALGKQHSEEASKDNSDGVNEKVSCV
T8 sequence (P07550 whole entry): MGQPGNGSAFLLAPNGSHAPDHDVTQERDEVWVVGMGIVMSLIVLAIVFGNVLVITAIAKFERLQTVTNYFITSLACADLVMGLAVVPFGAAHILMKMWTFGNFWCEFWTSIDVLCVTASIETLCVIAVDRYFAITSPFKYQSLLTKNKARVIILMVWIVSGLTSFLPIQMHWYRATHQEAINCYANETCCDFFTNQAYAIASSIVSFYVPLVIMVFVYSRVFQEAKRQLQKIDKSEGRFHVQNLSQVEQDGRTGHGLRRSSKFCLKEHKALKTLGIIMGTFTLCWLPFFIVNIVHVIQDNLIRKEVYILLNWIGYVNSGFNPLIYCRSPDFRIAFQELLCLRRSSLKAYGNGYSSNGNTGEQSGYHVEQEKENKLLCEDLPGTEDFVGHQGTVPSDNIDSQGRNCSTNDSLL
T2 sequence (P21728 whole entry): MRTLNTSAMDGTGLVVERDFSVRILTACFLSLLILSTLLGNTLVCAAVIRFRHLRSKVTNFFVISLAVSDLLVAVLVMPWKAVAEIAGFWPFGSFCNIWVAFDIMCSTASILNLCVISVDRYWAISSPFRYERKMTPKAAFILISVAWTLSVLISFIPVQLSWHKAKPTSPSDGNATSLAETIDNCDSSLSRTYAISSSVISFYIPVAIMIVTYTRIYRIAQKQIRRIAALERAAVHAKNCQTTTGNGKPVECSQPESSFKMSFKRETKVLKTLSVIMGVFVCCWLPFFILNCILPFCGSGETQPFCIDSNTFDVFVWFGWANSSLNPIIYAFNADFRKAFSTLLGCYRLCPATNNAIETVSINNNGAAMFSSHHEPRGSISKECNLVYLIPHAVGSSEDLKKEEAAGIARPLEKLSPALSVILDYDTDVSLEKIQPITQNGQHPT
T3 sequence (P21918 whole entry): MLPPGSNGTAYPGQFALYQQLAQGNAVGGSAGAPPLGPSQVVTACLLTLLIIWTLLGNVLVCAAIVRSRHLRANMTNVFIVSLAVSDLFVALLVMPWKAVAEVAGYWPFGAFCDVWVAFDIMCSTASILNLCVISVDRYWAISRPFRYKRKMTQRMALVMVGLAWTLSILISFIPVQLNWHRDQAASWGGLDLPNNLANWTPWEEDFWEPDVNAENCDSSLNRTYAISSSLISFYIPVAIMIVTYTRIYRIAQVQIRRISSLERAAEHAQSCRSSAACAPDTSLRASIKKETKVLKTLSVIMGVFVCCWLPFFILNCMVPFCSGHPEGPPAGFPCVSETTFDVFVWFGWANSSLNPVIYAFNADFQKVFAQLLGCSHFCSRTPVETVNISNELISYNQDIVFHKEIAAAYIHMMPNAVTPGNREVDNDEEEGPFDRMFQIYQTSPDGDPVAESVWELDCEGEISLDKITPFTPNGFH

Ki [1] [nM] | Ki [2] [nM] | Ki [3] [nM] | Ki [4] [nM] | Ki [5] [nM] | Ki [6] [nM] | Ki [7] [nM] | Ki [8] [nM] | difference in affinity, uncaged dechloroeticlopride over 4, 5 and 6 (D2 and D3 receptors; at D2S and D3, radioligand displacement curves) | Ki (D2 and D3 receptors; range over D2L, D2S, D3, stated in text) [nM] | Compound
2800 ± 180 |  |  |  |  |  |  |  |  |  | CCc1ccc(OC)c(C(=O)NC[C@@H]2CCCN2CC)c1OCc1ccccc1[N+](=O)[O-] [compound 4, (S)-3-Ethyl-N-[(1-ethylpyrrolidin-2-yl)methyl]-6-methoxy-2-[(2-nitrobenzyl)oxy]benzamide]
25000 ± 3300 |  |  |  |  |  |  |  |  |  | CCc1ccc(OC)c(C(=O)NC[C@@H]2CCCN2CC)c1OCc1cc(OC)c(OC)cc1[N+](=O)[O-] [compound 5]
 | 11000 ± 3600 | 49000 ± 17000 | 1800 ± 420 | 270 ± 28 | 880 ± 150 | 100 ± 36 | 8900 ± 3000 | more than 100 fold | 1.2 to 2.4 | CCc1ccc(OC)c(C(=O)NC[C@@H]2CCCN2CC)c1O [dechloroeticlopride, (S)-3-Ethyl-N-[(1-ethylpyrrolidin-2-yl)methyl]-2-hydroxy-6-methoxybenzamide, reference compound]
